Reference: patent US5804589A, “Use of N-cyclohexyl benzamides for treating bowel disorders” (Laboratoires Jacques Logeais, priority 1995, dated 1998)
Values joined by “and” are separate entries in the source; they are usually repeats but may differ in a detail not shown here. Identical values can stand only once. “Also recorded” adds a separate entry of the source.

Key:
[1] = Visceral sensitivity: abdominal contractures produced by rectal distension after acetic acid irritation; assay type: in vivo; conditions: rat, 10 min distension, mean of five rats, placebo 23.8 ± 1.6, * p < 0.05 vs placebo
Excerpt: The first model consists in observing, in the rat, the abdominal contractures produced by a rectal distension applied to a mucous membrane which has been irritated beforehand. The number of contractures is proportional to the intensity of the pain experienced. A similar model has been described in Neurogastroenterol. and Mot. (1994), 6, 140, where it is shown that the products which decrease the perception of pain in man decrease the number of contractures observed in the rat.
Male Sprague-Dawley rats weighing 180 g are deprived of food for 12 hours. Under slight fluothane anaesthesia, an intrarectal probe is introduced (5 cm from the anus) and 1.5 ml of 1% dilute acetic acid are injected. The acid immediately flows out via the anus. This rapid contact of the acid makes it possible to irritate the mucous membrane (model for rectal colitis). 1 h 30 after irritation, a small latex balloon (diameter when empty 2 mm, length 1 cm), mounted on a polyurethane catheter (int. diameter 1 mm), is introduced into the rectum (5 cm from the anus) under slight fluothane anaesthesia. The catheter is attached to the base of the tail with adhesive tape and protected by a glass tube. The test product is administered by force feeding and the rat is then introduced into a crystallizing dish covered with a grid. The free ends of the tube and of the catheter are passed through the grid in order to carry out the dilations.
A distension is carried out 2 h 30 after irritating the rectum. The small balloon is dilated with 1.5 ml of distilled water (intracolic pressure equal to 60 mm Hg on average). Dilation is maintained for 10 minutes, during which the abdominal contractures are counted. The small balloon is then deflated by sucking off the distilled water.
They are expressed by the mean number of contractures observed with respect to five rats for the 10 minutes during which they are subjected to a distension.

[2] = Ulcerative colitis induced by intracolic trinitrobenzenesulphonic acid (TNB): weight, macroscopic and histological analysis of colon; assay type: in vivo, rat; conditions: for Mean weight of the animals: in g
Excerpt: A model for ulcerative colitis induced in the rat by an intracolic instillation of trinitrobenzenesulphonic acid has already been described, for example in Gut (1992), 33, 1498-1503.
The beneficial effect of a treatment on the development of this colitis can be evaluated, on the one hand, by the overall state of health of the animal, represented for example by the change in weight, and, on the other hand, by a histological study of the colon at the end of the experiment.
Male Sprague-Dawley rats (140-150 g), deprived of food since the previous day, are subjected, under general anaesthesia (isoflurane), to irritation of the mucous membrane of the distal colon (7 cm from the anus) with 1 ml of a 50 mg/ml aqueous trinitrobenzenesulphonic acid (TNB) solution. On the following day, the rats are randomized in two equal-sized groups (n=7) which then receive the treatment (placebo or product) by forcefeeding, mornings and evenings. The products are administered at 1 mg/kg p.o. twice daily.
The treatment is administered for the ten days which follow irritation of the colon. The animals are weighed every morning from D5 to D10. The animals are deprived of food on D9 and humanely killed on D10. The colons are removed and macroscopically and then histologically examined.
The macroscopic appearance of the colons was graded as follows:
Sections of the colon are fixed with formaldehyde and enclosed in paraffin blocks. 5 μm sections are prepared, stained with haemalum-eosin and evaluated by optical microscopy according to the following gradings:
The colon was divided into three mucous, submucous and muscular layers and each layer was graded according to the preceding criteria.
The sum of the gradings attributed to each substructure defines, per animal, an index which takes into account both the afflux of the inflammatory cells and the architectural distortion.

5-HT3 receptors [3] = target: T1, 5-HT3 receptors (Mus musculus, UniProt P23979); assay: Affinity for 5-HT3 receptors, membrane preparations of NG 108-15 cells, tritiated BRL 43694 as ligand; assay type: binding; conditions: NG 108-15 cell membranes
T1 sequence (P23979 24-489): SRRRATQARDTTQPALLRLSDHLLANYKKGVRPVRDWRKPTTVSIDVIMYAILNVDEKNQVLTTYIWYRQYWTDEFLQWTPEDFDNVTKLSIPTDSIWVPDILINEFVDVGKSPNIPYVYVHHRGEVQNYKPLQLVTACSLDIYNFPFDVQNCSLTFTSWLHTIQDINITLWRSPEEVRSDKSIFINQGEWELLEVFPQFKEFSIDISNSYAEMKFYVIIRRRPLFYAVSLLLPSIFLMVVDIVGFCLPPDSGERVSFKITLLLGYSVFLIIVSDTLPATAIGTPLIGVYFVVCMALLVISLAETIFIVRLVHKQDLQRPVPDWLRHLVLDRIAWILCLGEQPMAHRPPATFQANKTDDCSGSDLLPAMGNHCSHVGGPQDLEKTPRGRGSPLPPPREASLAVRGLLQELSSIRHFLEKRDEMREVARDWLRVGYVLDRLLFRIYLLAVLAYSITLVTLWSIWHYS
Method: The affinity of the compounds for 5-HT3 receptors was measured according to the method described in Bioch. Pharmacol. (1990), 40, (7), 1541-1550, by using membrane preparations of NG 108-15 cells and tritiated BRL 43694 as specific ligand.

5-HT3 receptors [4] = target: T2, 5-HT3 receptors (Rattus norvegicus, UniProt P35563); assay: Bezold-Jarisch reflex: inhibition of bradycardia induced by serotonin (5-HT3 antagonist activity in vivo); conditions: iv; read-out: IC50 for antagonism of serotonin-induced bradycardia
T2 construct: from tissue; host or cells: whole animal (endogenous receptor)
T2 sequence (P35563 24-483): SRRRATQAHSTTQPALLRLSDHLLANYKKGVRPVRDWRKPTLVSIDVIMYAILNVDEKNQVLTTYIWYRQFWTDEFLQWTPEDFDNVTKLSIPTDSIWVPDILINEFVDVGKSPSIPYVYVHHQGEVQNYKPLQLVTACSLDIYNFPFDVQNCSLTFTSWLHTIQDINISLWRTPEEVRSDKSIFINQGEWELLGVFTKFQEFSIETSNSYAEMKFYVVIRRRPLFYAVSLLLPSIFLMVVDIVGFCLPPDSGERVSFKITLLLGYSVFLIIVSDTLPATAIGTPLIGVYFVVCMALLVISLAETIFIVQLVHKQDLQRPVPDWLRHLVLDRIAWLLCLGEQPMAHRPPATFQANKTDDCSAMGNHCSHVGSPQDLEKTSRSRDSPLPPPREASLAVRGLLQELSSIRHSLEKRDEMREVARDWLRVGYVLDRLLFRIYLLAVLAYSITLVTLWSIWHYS
Method: The 5-HT3 antagonist activity of products was evaluated in vivo by measuring their property of inhibiting a bradycardia induced by serotonin, according to the method described in J. Pharm. & Exp. Therap. (1989), 248, 197-201.

COc1cc(N)c(Cl)cc1C(=O)N[C@@H]1CCCC[C@@H]1CN1CCC(CO)CC1 (relative stereo) [Compound 3]
No. of contractures ± standard deviation ([1]; 0.3 mg/kg p.o.): 13.2 ± 2.4

COc1cc(N)c(Cl)cc1C(=O)N[C@@H]1CCCC[C@@H]1CN1CCC(C)(C)CC1 (relative stereo) [Compound 4]
No. of contractures ± standard deviation ([1]; 0.3 mg/kg p.o.): 10.6 ± 4.2

CC1CCN(C[C@H]2CCCC[C@H]2NC(=O)c2cc(Cl)c(N)cc2OCC2CC2)CC1 [Compound 6]
No. of contractures ± standard deviation ([1]; 0.1 mg/kg p.o.): 3.3 ± 1.9
No. of contractures ± standard deviation ([1]; 0.3 mg/kg p.o.): 7.3 ± 2.6
No. of contractures ± standard deviation ([1]; 1 mg/kg p.o.): 9.4
change in weight versus placebo ([2]; 1 mg/kg p.o. twice daily, TNB colitis): significantly improved change in weight
Mean weight of the animals ([2]; 5 days after treatment with TNB, 1 mg/kg p.o. twice daily, placebo 130 ± 8): 153 ± 15
Mean weight of the animals ([2]; 6 days after treatment with TNB, 1 mg/kg p.o. twice daily, placebo 139 ± 18, * p < 0.05): 177 ± 23
Mean weight of the animals ([2]; 7 days after treatment with TNB, 1 mg/kg p.o. twice daily, placebo 142 ± 20, * p < 0.05): 186 ± 27
Mean weight of the animals ([2]; 8 days after treatment with TNB, 1 mg/kg p.o. twice daily, placebo 147 ± 23, * p < 0.05): 194 ± 34
Mean weight of the animals ([2]; 9 days after treatment with TNB, 1 mg/kg p.o. twice daily, placebo 158 ± 30, * p < 0.05): 206 ± 39
Index (histological; sum of gradings of mucous, submucous and muscular layers per animal) ([2]; D10, 1 mg/kg p.o. twice daily, each index value shared by the number of animals in the column beside it): 11 and 3 and 1 and 0
Number of animals at macroscopic colon Stage 0 ([2]; Stage 0: no trace of irritation, D10, 1 mg/kg p.o. twice daily, placebo 0): 0
Number of animals at macroscopic colon Stage 1 ([2]; Stage 1: slightly vasodilated mucous membrane, D10, placebo 0): 1
Number of animals at macroscopic colon Stage 2 ([2]; Stage 2: vasodilated mucous membrane and adhesions, D10, placebo 0): 4
Number of animals at macroscopic colon Stage 3 ([2]; Stage 3: haemorrhagic and sclerotic mucous membrane and adhesions, D10, placebo 3): 2
Number of animals at macroscopic colon Stage 4 ([2]; Stage 4: ulcerated and haemorrhagic mucous membrane and adhesions, D10, placebo 3): 0
seriousness of the macroscopic colon lesions versus placebo ([2]; chi-squared test, Stages 1 and 2 vs Stages 3 and 4): seriousness of the lesions is significantly greater with the placebo than with Compound 6; also recorded: lesional appearance of the colon is less serious
inflammatory state of the colon (histology) versus placebo ([2]; chi-squared test, indices 0 to 5 vs 6 to 12): inflammatory state is significantly more serious treated with the placebo than treated with Compound 6; also recorded: decrease in the afflux of the inflammatory cells
size of the class combining histological indices 0 to 5 ([2]; number of animals, placebo 0): 5
size of the class of macroscopic Stages 1 and 2 ([2]; number of animals, placebo 0): 5
size of the class combining histological indices 6 to 12 ([2]; number of animals, placebo 6): 2
size of the class of macroscopic Stages 3 and 4 ([2]; number of animals, placebo 6): 2

CC1CCN(C[C@H]2CCCC[C@H]2NC(=O)c2cc(Cl)c(N)cc2OC(C)C)CC1 (relative stereo) [Compound 7]
No. of contractures ± standard deviation ([1]; 0.3 mg/kg p.o.): 7.6 ± 0.5

CC1CCN(C[C@H]2CCCC[C@@H]2NC(=O)c2cc(Cl)c(N)cc2OCC2CC2)CC1 [Compound 9]
No. of contractures ± standard deviation ([1]; 0.3 mg/kg p.o.): 6.3 ± 3.5

Cc1nccn1CC1CCc2c(c3ccccc3n2C)C1=O (stereo not shown) [ondansetron]
Ki (5-HT3 receptors [3]): 16 nM
ED50 (5-HT3 receptors [4]): ~3 µg/kg

COc1cc(N)c(Cl)cc1C(=O)N[C@@H]1CCCC[C@@H]1CN1CCC(C(C)(C)C)CC1 (relative stereo) [Compound 5]
No. of contractures ± standard deviation ([1]; 0.3 mg/kg p.o.): 10.6 ± 3.8

COc1cc(N)c(Cl)cc1C(=O)N[C@@H]1CCCC[C@@H]1CN1CCC(O)CC1 (relative stereo) [Compound 2]
No. of contractures ± standard deviation ([1]; 0.3 mg/kg p.o.): 9.2 ± 5.3

CC1CCN(C[C@H]2CCCC[C@H]2NC(=O)c2cc(Cl)c(N)cc2OC2CCCC2)CC1 [Compound 8]
No. of contractures ± standard deviation ([1]; 0.3 mg/kg p.o.): 9.2 ± 1.3

COc1cc(N)c(Cl)cc1C(=O)N[C@@H]1CCCC[C@@H]1CN1CCC(C)CC1 [Compound 1]
No. of contractures ± standard deviation ([1]; 0.3 mg/kg p.o.): 3.4 ± 2.1
